Laboratory results taken from publication PMC8949503, “Radiosynthesis and Preclinical Evaluation of Bispecific PSMA/FAP Heterodimers for Tumor Imaging” (Pharmaceuticals, 2022).
Each block holds one compound with its values, some of them ahead of it.

What was measured:
[1] = tested on: A549-FAP tumor-bearing nude mice; experiment: tissue biodistribution and blocking in A549-FAP tumor-bearing nude mice; type: in vivo; details: 1 h p.i.; for A549-FAP tumor uptake, Blocked / Blood uptake, Blocked / Bone uptake, Blocked / Brain uptake, Blocked / Gall bladder uptake, Blocked / Heart uptake, Blocked / Kidney uptake, Blocked / Liver uptake, Blocked / Lung uptake, Blocked / Muscle uptake, Blocked / Small intestine uptake, Blocked / Spleen uptake, Blocked / Stomach uptake, Blocked: co-injected DOTA-FAPI-04 3 mg/kg
Method: (§1) For the biodistribution and micro-PET imaging studies, male BALB/c nude mice (6–8 weeks) were subcutaneously inoculated with 1 × 10^7 22Rv1 or 5 × 10^6 A549-FAP cells in the right shoulder. Mice were imaged or used in the biodistribution studies when the tumor reached 5–10 mm in diameter.
(§2) Mice bearing 22Rv1 or A549-FAP (n = 4 in each group) tumors were euthanized 60 min after intravenous administration of each tracer (740–1480 KBq/mouse). In the blocking group, the same experiment was conducted by co-injecting 50 μg of 2-PMPA for mice bearing 22Rv1 tumors or 50 μg of DOTA-FAPI-04 for mice bearing A549-FAP tumors. The organs of interest and tumors were quickly dissected and weighed. Radioactivity was assessed using a γ-counter and calculated as the percentage injected dose per gram (%ID/g).

[2] = tested on: 22Rv1 tumor-bearing nude mice; experiment: tissue biodistribution and blocking in 22Rv1 tumor-bearing nude mice; type: in vivo; details: 1 h p.i.; for 22Rv1 tumor* uptake, Blocked / Kidney* uptake, Blocked: co-injected 2-PMPA 3 mg/kg
Method: as §1, §2

[3] = tested on: A549-FAP tumor xenografts; experiment: dynamic micro-PET imaging in A549-FAP tumor xenografts; type: in vivo; details: A549-FAP tumor-bearing nude mice, up to 2 h p.i.
Method: as §1
Mice bearing xenografted 22Rv1 or A549FAP tumors (n = 3 per group) were anesthetized and placed in the prone position in a micro-PET scanner (Siemens, Erlangen, Germany). Dynamic PET/CT images were acquired 2 h post-injection (p.i.) with the radiotracer (5.55–11.1 MBq). The blocking experiments were performed by co-injecting 3 mg/kg of 2-PMPA for mice bearing 22Rv1 tumors or 3 mg/kg of DOTA-FAPI-04 for mice bearing A549-FAP tumors. The images were reconstructed using a three-dimensional ordered-subset expectation maximum algorithm and converted to %ID/g. Attenuation correction was performed using the unenhanced low-dose CT data. For data analysis, the regions of interest (ROIs) were manually drawn over the tumors and major organs on decay-corrected whole-body coronal images obtained using Inevon Research Workplace 4.1 software.

A549-FAP cells [4] = experiment: cell uptake and blocking study in A549-FAP cells; type: cell-based; details: for cell uptake, blocked: +DOTA-FAPI-04 (2.3 μM)
Method: PSMA-positive 22Rv1 cells (purchased from Institute of Biochemistry and Cell Biology, Shanghai, China) and stably FAP-transfected A549-FAP cells (acquired using lentiviral infection) were used for the cell-based experiments. The 22Rv1 cells were cultivated in RPMI-1640 medium (Gibco) at 37 °C/5% carbon dioxide, while the A549-FAP cells were cultivated in DMEM medium. Both media were supplemented with 10% heat-inactivated fetal bovine serum (FBS) and 1% penicillin/streptomycin (Gibco). Puromycin (1 µg/mL) was also added to the media to maintain FAP expression.
Cells were seeded in 12-well plates 2 days in advance to achieve a final confluence of approximately 80–90% (4–5 × 10^5 cells/well). The medium was displaced by 1 mL fresh medium without FBS. The method of cell studies was similar to a method reported previously. For the competitive binding experiments, cells were incubated with the known radiotracers ([^18F]FAPI-42 for the FAP receptor and [^18F]AlF-PSMA-BCH for PSMA) in the presence of 7 different concentrations (10^−5–10^−11 M) of the corresponding unlabeled heterodimers or corresponding monomer and incubated for 60 min at 37 °C. In all experiments, the cells were washed twice with PBS, lysed with 1 M NaOH, and counted using a γ-counter. IC50 values were calculated by fitting the data using a nonlinear regression algorithm (implemented in SPSS). For the radioligand binding studies, the cells were incubated for 5, 15, 30, 60, or 120 min at 37 °C after the addition of the heterodimer or corresponding monomeric radiotracer radiotracers. The blocking experiments were determined by adding the corresponding competitors (4.4 μM 2-PMPA for 22Rv1 cells and 2.3 μM DOTA-FAPI-04 for A549-FAP cells). Radioactivity was measured using a γ-counter, normalized to 1 million cells (1 mio cells), and calculated as the percentage of the applied dose (%ID/1 mio cells). For the internalization experiments, the cells were incubated with the radiolabeled compound for 60 min, washed twice with 1 mL PBS, and then incubated for 10 min with 1 mL glycine HCl (1 M, pH 2.2) to detach the extracellular bound tracer. Next, the cells were washed with PBS (2.0 mL) and lysed with 1 M NaOH (1.5 mL). The radioactivity of the acid wash solution (extracellularly bound tracer) and cell lysate (internalized tracer) was assessed separately using a γ-counter. For the efflux experiments, the radioactive medium was removed after 60 min incubation and replaced with non-radioactive medium. At predetermined time points of 15, 30, 60, and 120 min, the cells were washed with 1.0 mL PBS three times and then lysed. The radioactivity of the remaining cells was assessed using a γ-counter. Each experiment was conducted three times with three or four replicates per independent experiment.

[5] = n-octanol/PBS partition coefficient (logD); type: physicochemical; details: PBS pH 7.4, ambient temperature
Method: An aliquot (74 kBq) of [^18F]AlF-PSMA-FAPI-01 or [^18F]AlF-PSMA-FAPI-02 was added to a centrifuge tube containing a mixture of phosphate-buffered solution (PBS, pH 7.4, 5.0 mL) and n-octanol (5.0 mL). The mixture was vigorously vortexed at ambient temperature for 5 min and then centrifuged (10,000 rpm, 5 min). Three samples (each 100 µL) from each phase underwent radioactivity measurement using a γ-counter (CAPRAC-R, Capintec, Inc., Ramsey, NJ, USA).

22Rv1 cells = experiment: efflux in 22Rv1 cells; type: cell-based; details: 2 h incubation
Method: (§3) Cells were seeded in 12-well plates 2 days in advance to achieve a final confluence of approximately 80–90% (4–5 × 10^5 cells/well). The medium was displaced by 1 mL fresh medium without FBS. The method of cell studies was similar to a method reported previously. For the competitive binding experiments, cells were incubated with the known radiotracers ([^18F]FAPI-42 for the FAP receptor and [^18F]AlF-PSMA-BCH for PSMA) in the presence of 7 different concentrations (10^−5–10^−11 M) of the corresponding unlabeled heterodimers or corresponding monomer and incubated for 60 min at 37 °C. In all experiments, the cells were washed twice with PBS, lysed with 1 M NaOH, and counted using a γ-counter. IC50 values were calculated by fitting the data using a nonlinear regression algorithm (implemented in SPSS). […] The blocking experiments were determined by adding the corresponding competitors (4.4 μM 2-PMPA for 22Rv1 cells and 2.3 μM DOTA-FAPI-04 for A549-FAP cells). Radioactivity was measured using a γ-counter, normalized to 1 million cells (1 mio cells), and calculated as the percentage of the applied dose (%ID/1 mio cells). […] The radioactivity of the acid wash solution (extracellularly bound tracer) and cell lysate (internalized tracer) was assessed separately using a γ-counter. […] The radioactivity of the remaining cells was assessed using a γ-counter. […]

A549-FAP cells [6] = experiment: efflux in A549-FAP cells; type: cell-based; details: 2 h incubation
Method: as §3

A549-FAP tumor uptake [1]: 6.47 ± 0.76 %ID/g
Blood uptake [1]: 1.98 ± 0.46 %ID/g
Bone uptake [1]: 5.53 ± 0.18 %ID/g
Brain uptake [1]: 0.11 ± 0.03 %ID/g
Gall bladder uptake [1]: 2.23 ± 1.07 %ID/g
Heart uptake [1]: 0.84 ± 0.17 %ID/g
Kidney uptake [1]: 23.10 ± 7.91 %ID/g
Liver uptake [1]: 0.81 ± 0.22 %ID/g
Lung uptake [1]: 1.37 ± 0.22 %ID/g
Muscle uptake [1]: 1.35 ± 0.36 %ID/g
Small intestine uptake [1]: 0.84 ± 0.33 %ID/g
Spleen uptake [1]: 0.51 ± 0.16 %ID/g
Stomach uptake [1]: 0.83 ± 0.42 %ID/g
A549-FAP tumor uptake, Blocked [1]: 1.11 ± 0.88 %ID/g
Blood uptake, Blocked [1]: 0.57 ± 0.19 %ID/g
Bone uptake, Blocked [1]: 3.83 ± 0.02 %ID/g
Brain uptake, Blocked [1]: 0.07 ± 0.03 %ID/g
Gall bladder uptake, Blocked [1]: 1.39 ± 0.20 %ID/g
Heart uptake, Blocked [1]: 0.28 ± 0.07 %ID/g
Kidney uptake, Blocked [1]: 26.70 ± 10.80 %ID/g
Liver uptake, Blocked [1]: 0.41 ± 0.12 %ID/g
Lung uptake, Blocked [1]: 0.90 ± 0.24 %ID/g
Muscle uptake, Blocked [1]: 0.85 ± 0.39 %ID/g
Small intestine uptake, Blocked [1]: 0.55 ± 0.29 %ID/g
Spleen uptake, Blocked [1]: 0.30 ± 0.03 %ID/g
Stomach uptake, Blocked [1]: 0.37 ± 0.06 %ID/g
22Rv1 tumor* uptake [2]: 12.85 ± 2.43 %ID/g
Kidney* uptake [2]: 27.0 ± 11.9 %ID/g
22Rv1 tumor* uptake, Blocked [2]: 6.85 ± 1.53 %ID/g
Kidney* uptake, Blocked [2]: 2.94 ± 0.35 %ID/g
n-octanol/PBS distribution coefficient (logD) [5]: −2.04 ± 0.04
SMILES: N#C[C@@H]1CC(F)(F)CN1C(=O)CNC(=O)c1ccnc2ccc(OCCCN3CCN(C(=O)CCC(=O)NCCCC[C@H](NC(=O)CN4CCN5CCN(CC4)CC(=O)[O][Al]([18F])[O]C(=O)C5)C(=O)NC[C@H]4CC[C@H](C(=O)N[C@H](Cc5ccc6ccccc6c5)C(=O)NCCCC[C@H](NC(=O)N[C@@H](CCC(=O)O)C(=O)O)C(=O)O)CC4)CC3)cc12 [[^18F]AlF-PSMA-FAPI-02]
time–activity curves (micro-PET) [3]: rapid uptake and excellent retention in tumors, as well as rapid clearance from non-target organs via the kidneys
cell uptake (A549-FAP cells [4]; 5 min): 11.66 ± 0.39 % ID/1 million cells
cell uptake, blocked (A549-FAP cells [4]; 5 min): 1.28 ± 0.08 % ID/1 million cells
cell uptake (A549-FAP cells [4]; 15 min): 17.03 ± 0.85 % ID/1 million cells
cell uptake, blocked (A549-FAP cells [4]; 15 min): 1.29 ± 0.38 % ID/1 million cells
cell uptake (A549-FAP cells [4]; 30 min): 23.26 ± 1.59 % ID/1 million cells
cell uptake, blocked (A549-FAP cells [4]; 30 min): 1.31 ± 0.16 % ID/1 million cells
cell uptake (A549-FAP cells [4]; 60 min): 27.02 ± 2.21 % ID/1 million cells
cell uptake, blocked (A549-FAP cells [4]; 60 min): 1.59 ± 0.65 % ID/1 million cells
cell uptake (A549-FAP cells [4]; 120 min): 32.55 ± 1.42 % ID/1 million cells
cell uptake, blocked (A549-FAP cells [4]; 120 min): 1.71 ± 0.23 % ID/1 million cells
cell efflux (22Rv1 cells): lower cellular efflux
cell efflux (A549-FAP cells [6]): lower cellular efflux

A549-FAP tumor uptake [1]: 6.40 ± 0.32 %ID/g
Blood uptake [1]: 2.36 ± 0.60 %ID/g
Bone uptake [1]: 4.09 ± 0.76 %ID/g
Brain uptake [1]: 0.16 ± 0.03 %ID/g
Gall bladder uptake [1]: 2.02 ± 0.40 %ID/g
Heart uptake [1]: 1.56 ± 0.14 %ID/g
Kidney uptake [1]: 23.88 ± 3.01 %ID/g
Liver uptake [1]: 1.38 ± 0.11 %ID/g
Lung uptake [1]: 1.82 ± 0.18 %ID/g
Muscle uptake [1]: 2.18 ± 0.48 %ID/g
Small intestine uptake [1]: 1.23 ± 0.21 %ID/g
Spleen uptake [1]: 0.99 ± 0.17 %ID/g
Stomach uptake [1]: 1.03 ± 0.13 %ID/g
A549-FAP tumor uptake, Blocked [1]: 1.38 ± 0.77 %ID/g
Blood uptake, Blocked [1]: 0.88 ± 0.62 %ID/g
Bone uptake, Blocked [1]: 1.53 ± 0.21 %ID/g
Brain uptake, Blocked [1]: 0.09 ± 0.03 %ID/g
Gall bladder uptake, Blocked [1]: 1.67 ± 0.32 %ID/g
Heart uptake, Blocked [1]: 0.41 ± 0.02 %ID/g
Kidney uptake, Blocked [1]: 28.65 ± 6.05 %ID/g
Liver uptake, Blocked [1]: 0.79 ± 0.37 %ID/g
Lung uptake, Blocked [1]: 1.66 ± 0.33 %ID/g
Muscle uptake, Blocked [1]: 0.32 ± 0.05 %ID/g
Small intestine uptake, Blocked [1]: 1.04 ± 0.53 %ID/g
Spleen uptake, Blocked [1]: 0.67 ± 0.20 %ID/g
Stomach uptake, Blocked [1]: 0.91 ± 0.43 %ID/g
22Rv1 tumor* uptake [2]: 12.37 ± 0.40 %ID/g
Kidney* uptake [2]: 23.4 ± 9.22 %ID/g
22Rv1 tumor* uptake, Blocked [2]: 5.03 ± 0.75 %ID/g
Kidney* uptake, Blocked [2]: 2.85 ± 0.38 %ID/g
n-octanol/PBS distribution coefficient (logD) [5]: −2.74 ± 0.02
SMILES: N#C[C@@H]1CC(F)(F)CN1C(=O)CNC(=O)c1ccnc2ccc(OCCCC(=O)NCCCC[C@H](NC(=O)CN3CCN4CCN(CC3)CC(=O)[O][Al]([18F])[O]C(=O)C4)C(=O)NCC3CCC(C(=O)N[C@H](Cc4ccc5ccccc5c4)C(=O)NCCCC[C@H](NC(=O)N[C@@H](CCC(=O)O)C(=O)O)C(=O)O)CC3)cc12 (some centres unmarked) [[^18F]AlF-PSMA-FAPI-01]
time–activity curves (micro-PET) [3]: rapid uptake and excellent retention in tumors, as well as rapid clearance from non-target organs via the kidneys
cell uptake (A549-FAP cells [4]; 5 min): 8.15 ± 0.31 % ID/1 million cells
cell uptake, blocked (A549-FAP cells [4]; 5 min): 0.67 ± 0.07 % ID/1 million cells
cell uptake (A549-FAP cells [4]; 15 min): 16.57 ± 0.98 % ID/1 million cells
cell uptake, blocked (A549-FAP cells [4]; 15 min): 0.71 ± 0.09 % ID/1 million cells
cell uptake (A549-FAP cells [4]; 30 min): 23.73 ± 0.33 % ID/1 million cells
cell uptake, blocked (A549-FAP cells [4]; 30 min): 0.77 ± 0.01 % ID/1 million cells
cell uptake (A549-FAP cells [4]; 60 min): 30.36 ± 3.53 % ID/1 million cells
cell uptake, blocked (A549-FAP cells [4]; 60 min): 0.83 ± 0.09 % ID/1 million cells
cell uptake (A549-FAP cells [4]; 120 min): 28.23 ± 2.97 % ID/1 million cells
cell uptake, blocked (A549-FAP cells [4]; 120 min): 1.16 ± 0.06 % ID/1 million cells
